Experiments:
[1] = test system: seizures in Dravet patients; conditions: cited from earlier work; for effectiveness of seizure treatment: individuals with Dravet syndrome
[2] = test system: seizures in individuals with WHS and with Dravet syndrome; conditions: individuals with WHS as well as individuals with Dravet syndrome; cited from earlier work
[3] = test system: seizures in patients with 15q Duplication syndrome; conditions: cited from earlier work
[4] = test system: seizures in individuals with WHS; assay: Online survey of 4p-Support Group parents: seizure control outcome by seizure treatment in WHS (Example 5); type: in vivo, human; conditions: for Seizure control outcome: Complete control, Percent / Seizure control outcome: Increased number of seizure, Percent / Seizure control outcome: Less than 50% reduction, Percent / Seizure control outcome: No change, Percent / Seizure control outcome: ≥50% reduction, Percent: percent of users of the medication
Text: This study and all recruitment materials were approved by the University of Utah IRB (IRB_00064655). The cohort for this study was recruited from the 4p-Support Group, which is comprised of parents and caretakers of individuals with WHS. Inclusion criteria were: 1) a genetic diagnosis of WHS and 2) at least one seizure treatment had been used for seizure control. An invitation to participate in the survey was sent out to all members of the 4p-Support Group email list (representing approximately 300 individuals with WHS) and posted on the 4p-Support Group's Facebook page. Individuals self-identifying as a parent or caretaker of an individual with WHS and a history of seizures, who had tried at least one seizure treatment, were invited to participate. The invitation described the purpose of the study and provided a link to the online survey.
The survey was developed by expanding the seizure history and treatment sections of a previous survey used by Ho et al (J Med Genet 2016; 53:256-263). The online survey was hosted by the HIPAA-compliant platform, RedCAP, and consisted of four sections. The first section collected general demographic information about the individual with WHS. Two additional questions were added to confirm whether the individual had genetic testing to confirm the diagnosis of WHS and ascertain which type of genetic testing had been completed. The second section focused on seizure history. This included age of onset, types of seizures, seizure duration, status epilepticus (seizures lasting longer than 30 minutes), and whether the individual still experiences seizures or is seizure free. The third section asked about antiepileptic drugs (AEDs) used for seizure treatment. Participants were asked to list each AED or combination of AEDs tried in chronological order. For each AED or combination of AEDs participants were asked about duration, effect on number of seizures, side effects, and reasons for discontinuing that AED or combination of AEDs. There were also questions about whether the individual was on a ketogenic diet or using cannabis oil during that time. Space for additional comments about each AED or combination of AEDs tried was also provided. The fourth section contained questions about use of ketogenic diet or cannabis oil while in the absence of AEDs. Again participants were asked about duration, effect on number of seizures, side effects, and reasons for discontinuing. In the case of cannabis oil use, participants were asked to specify whether pure cannabis oil or a THC mixture was used.
The levels of seizure control outcome were grouped into five categories: increased number of seizure, no change, less than 50% reduction, >50% reduction, and complete control.
When a medication was used multiple times (or when looking at combined medication), the seizure control outcome was scored as the best response among all of them. The most frequently used 5 medications reported in this cohort are phenobarbital, diazepam, lamotrigine, valproic acid (sodium valproate) and levetiracetam. We used frequency and percentages to describe the seizure control outcome of these five medications. The Kruskal-Wallis test was performed to evaluate the level of seizure control achieved with these five medications. The Wilcoxon rank sum test was performed to evaluate the hypothesis of the different seizure control outcomes between carbamazepine and levetiracetam. Comparison of the seizure control outcome based on whether levetiracetam was used first or later, was performed by the Cochran Armitage test. Statistical analysis was conducted using SAS 9.4 (SAS Inc., N.C.).

[5] = test system: seizures in individuals with WHS; assay: Parent-reported responses to seizure medications, questionnaire of the 48-individual WHS cohort (Example 1); type: in vivo, human; conditions: n users per drug; for Negative reports: number of unprompted parent reports of a negative reaction causing stop of the drug or no control over seizures; for Positive reports: number of unprompted parent reports of significant and observable increase in control over seizures
Text: This questionnaire captures the health, medical profile, developmental history, and treatment responses of individuals with WHS. For the present study, the focus was on the presence or absence of seizures, age of seizure onset, types of seizures, antiepileptic drugs (AEDs) used and responses to these AEDs, as well as responses to the ketogenic diet. For cases with incomplete, contradictory or unclear parental responses, medical records of patients were consulted. When available medical records were also incomplete, ‘no answer’ is indicated in the relevant text and tables.
AED responses were scored as negative if the patients' parents reported a negative reaction (allergic reaction or other) without prompting that caused them to stop using that drug, or if the drug conferred no control over seizures.

[6] = test system: seizures of this subtype of CDG; conditions: subtype of CDG caused by genes functioning like PIGG; cited from earlier work
[7] = levetiracetam used as first AED (n = 31)
[8] = levetiracetam used later in treatment (n = 27)

SMILES | response to seizure treatment [3] | Seizure control outcome: Complete control, Percent [4] [%] | Seizure control outcome: Less than 50% reduction, Percent [4] [%] | Seizure control outcome: No change, Percent [4] [%] | Seizure control outcome: ≥50% reduction, Percent [4] [%] | Negative reports [5] | Positive reports [5] | other results
NC(=O)N1c2ccccc2C=Cc2ccccc21 [Carbamazepine] | generally responded well | 18.18 | 18.18 | 27.27 | 9.09 |  |  | aggravates seizures, share of Dravet patients ([1]; Dravet syndrome): 20%; no benefit, share of Dravet patients ([1]; Dravet syndrome): 78%; effect on seizures [2]: exacerbate seizures; Seizure control outcome: Increased number of seizure, Percent [4]: 27.27%
CN1C(=O)CN=C(c2ccccc2)c2cc(Cl)ccc21 [Diazepam] |  | 31.25 | 6.25 | 25 | 37.5 |  |  | 
Nc1nnc(-c2cccc(Cl)c2Cl)c(N)n1 [Lamotrigine] |  | 31.25 | 6.25 | 12.5 | 50 |  |  | effect on seizures [2]: exacerbate seizures
CC[C@@H](C(N)=O)N1CCCC1=O [Levetiracetam] | generally responded well | 56.9 | 8.62 | 5.17 | 29.31 | 1 | 4 | Complete control, First use, % [4, 7]: 61.29%; Less than 50% reduction, First use, % [4, 7]: 3.23%; No change, First use, % [4, 7]: 3.23%; ≥50% reduction, First use, % [4, 7]: 32.26%; Complete control, Later use, % [4, 8]: 51.85%; Less than 50% reduction, Later use, % [4, 8]: 14.81%; No change, Later use, % [4, 8]: 7.41%; ≥50% reduction, Later use, % [4, 8]: 25.93%
CCC1(c2ccccc2)C(=O)NC(=O)NC1=O [Phenobarbital] |  | 61.11 | 11.11 | 13.89 | 11.11 | 5 | 0 | Seizure control outcome: Increased number of seizure, Percent [4]: 2.78%
CC1(C)O[C@@H]2[C@@H](CO[C@@]3(COS(N)(=O)=O)OC(C)(C)O[C@@H]23)O1 [Topiramate] |  |  |  |  |  | 4 | 1 | 
CCCC(CCC)C(=O)O [Valproic acid] | generally responded well | 50 | 9.38 | 9.38 | 31.25 | 2 | 2 | effectiveness of seizure treatment [1]: most effective
Cc1ncc(CO)c(CO)c1O.Cl [Vitamin B6] |  |  |  |  |  |  |  | efficacy in treating seizures [6]: efficacious
Br [bromide] |  |  |  |  |  |  |  | effectiveness of seizure treatment [1]: most effective

Reference: patent US20210212960A1, “IDENTIFICATION OF SEIZURE SUSCEPTIBILITY REGION IN WOLF-HIRSCHHORN SYNDROME AND TREATMENT THEREOF” (Lineagen, Inc., priority 2016, published 2021)
